Patent US9834550B2, “Pyridopyrimidinone compounds for modulating the catalytic activity of histone lysine demethylases (KDMs)” (Dong-A Socio Holdings Co., Ltd., priority 2014, dated 2017)

Columns and labels:
[1] = test system: MDA-MB-231 cell migration; test: Wound healing assay; format: cell-based; conditions: 24 h treatment; compared to DMSO; FIG. 1
Method: Breast cancer cells (MDA-MD-231) were seeded into 12-well plates (2500 cells/well), at bottom of which culture-inserts were implemented. The cells were cultured to subconfluence in RPMI1640 medium supplemented with 0.5% FBS and 100 μg/ml penicillin/streptomycin, and then starved in serum-free media for one day at 37° C. and 5% CO2. The inserts were removed to generate two cell patches separated each other by 0.9 mm of ‘wound fields’. Cultures were then treated with test compounds for 24 h. The results of wound healing assays at indicated time were photographed under microscopy with ×40 magnification after generating the wound fields. […] Similar results were obtained in three independent samples. The cancer cells were stained with 0.1% crystal violet at 24-hours time points.

[2] = molecular target: T1, Recombinant human JARID1B/KDM5B (Homo sapiens, UniProt Q9UGL1); test: LANCE Ultra TR-FRET demethylase assay with FLAG-tagged JARID1B; format: biochemical; conditions: 100 nM compound; 500 nM biotinylated H3K4me3 peptide substrate
T1 construct: purchased Active Motif 31432; host or cells: Sf9 insect cells
Summary of the method: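 Sf9-expressed N-FLAG full-length JARID1B (10–30 nM) preincubated 5 min with compound at 20, 1 or 0.1 uM (1% DMSO), then 500 nM biotin-H3K4me3 peptide, 500 uM 2-OG, 25 uM Fe(II), 2 mM ascorbate added; 30 min at room temperature in Hepes pH 7.5. H3K4me2/1 product read by TR-FRET 665/590 ratio.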

[3] = test system: MDA-MB-231 breast cancer cells; test: Cell invasion assay (transwell, BME); format: cell-based; conditions: 10 μM; 24-h incubation; FIG. 2
Method: The ability of MDA-MB-231 breast cancer cells to invade into the basement membrane through a layer of BME (Basement Membrane Extract) was determined by using transwell inserts in a 24-well plate. The pore size of membrane was […]. The basement membrane was reconstituted by loading cold BME on top of the polycarbonate filter of the inserts of the transwell plate. After gelation of Matrigel at 37° C., MDA-MB-231 cells were plated into the inserts (1×10^5 cells/0.3 ml/well), and complete media were added to the lower wells (0.5 ml/well). To analyze the effect of 10 μM of compounds No. 87, 167, isonicotinic acid r or SAHA, was present in the cell suspensions. After a 24-h incubation, the noninvasive cells were remained within the inserts while cells that traversed through the BME and the polycarbonate filter were attached to the lower surface of the filter. The penetrated cells were then stained with 0.1% crystal violet.

T1 sequence (Q9UGL1 whole entry): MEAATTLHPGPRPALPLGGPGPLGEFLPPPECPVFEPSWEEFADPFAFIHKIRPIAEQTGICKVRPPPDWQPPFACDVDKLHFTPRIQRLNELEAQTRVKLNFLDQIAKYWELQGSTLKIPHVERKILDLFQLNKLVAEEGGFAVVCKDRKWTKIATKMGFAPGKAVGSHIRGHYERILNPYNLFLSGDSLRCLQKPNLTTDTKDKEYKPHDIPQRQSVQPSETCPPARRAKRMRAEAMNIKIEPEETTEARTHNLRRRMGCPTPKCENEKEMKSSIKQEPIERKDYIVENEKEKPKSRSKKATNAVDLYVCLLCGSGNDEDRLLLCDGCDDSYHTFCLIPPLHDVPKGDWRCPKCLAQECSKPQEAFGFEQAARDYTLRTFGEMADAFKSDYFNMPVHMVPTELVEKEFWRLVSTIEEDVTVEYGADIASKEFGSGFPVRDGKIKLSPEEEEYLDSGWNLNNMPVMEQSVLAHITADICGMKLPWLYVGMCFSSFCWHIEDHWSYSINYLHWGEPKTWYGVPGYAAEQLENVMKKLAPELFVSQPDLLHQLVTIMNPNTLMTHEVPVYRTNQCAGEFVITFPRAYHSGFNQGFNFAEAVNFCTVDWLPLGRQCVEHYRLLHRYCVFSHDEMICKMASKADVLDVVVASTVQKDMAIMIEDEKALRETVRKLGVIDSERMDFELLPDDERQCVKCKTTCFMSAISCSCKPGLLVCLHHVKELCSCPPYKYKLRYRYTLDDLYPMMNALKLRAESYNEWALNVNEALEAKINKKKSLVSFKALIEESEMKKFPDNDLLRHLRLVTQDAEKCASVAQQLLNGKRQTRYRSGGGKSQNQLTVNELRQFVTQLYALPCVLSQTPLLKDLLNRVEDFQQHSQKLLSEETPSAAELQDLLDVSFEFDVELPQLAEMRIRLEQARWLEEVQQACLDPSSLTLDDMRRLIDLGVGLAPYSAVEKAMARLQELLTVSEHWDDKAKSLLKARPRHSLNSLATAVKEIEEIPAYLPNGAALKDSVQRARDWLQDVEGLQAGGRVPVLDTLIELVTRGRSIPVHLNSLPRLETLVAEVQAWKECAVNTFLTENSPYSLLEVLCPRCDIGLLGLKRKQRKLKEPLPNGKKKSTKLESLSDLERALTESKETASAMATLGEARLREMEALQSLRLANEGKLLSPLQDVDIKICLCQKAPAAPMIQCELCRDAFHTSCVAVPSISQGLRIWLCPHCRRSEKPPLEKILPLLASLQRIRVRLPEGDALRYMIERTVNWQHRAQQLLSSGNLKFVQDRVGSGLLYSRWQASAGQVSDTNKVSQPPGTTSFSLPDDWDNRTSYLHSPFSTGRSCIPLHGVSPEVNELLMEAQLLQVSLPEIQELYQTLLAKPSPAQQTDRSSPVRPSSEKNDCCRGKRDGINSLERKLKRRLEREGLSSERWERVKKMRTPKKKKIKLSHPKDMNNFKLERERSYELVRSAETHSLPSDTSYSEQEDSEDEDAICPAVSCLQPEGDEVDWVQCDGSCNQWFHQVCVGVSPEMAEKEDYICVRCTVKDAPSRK

Row | inhibition at 0.1 µM [2] [%] | Compound | MDA-MB-231 cell migration (wound healing) [1] | MDA-MB-231 breast cancer cell invasion potential [3]
1 | > 50 | CN(C)C1CCN(C(=O)CNCc2nccc3c(=O)[nH]c(COc4ccc(F)c(Cl)c4)nc23)C1 (centres unmarked) [Example 237, 2-((3-chloro-4-fluorophenoxy)methyl)-8-(((2-(3-(dimethylamino)pyrrolidin-1-yl)-2-oxoethyl)amino)methyl)pyrido[3,4-d]pyrimidin-4(3H)-one] |  | 
2 | > 50 | CNC1CCN(C(=O)CNCc2nccc3c(=O)[nH]c(COc4ccc(F)c(Cl)c4)nc23)C1 (centres unmarked) [Example 238, 2-((3-chloro-4-fluorophenoxy)methyl)-8-(((2-(3-(methylamino)pyrrolidin-1-yl)-2-oxoethyl)amino)methyl)pyrido[3,4-d]pyrimidin-4(3H)-one] |  | 
3 | > 50 | O=C(CNCc1nccc2c(=O)[nH]c(COc3ccc(F)c(Cl)c3)nc12)N[C@@H]1CCNC1 [Example 239, (R)-2-(((2-((3-chloro-4-fluorophenoxy)methyl)-4-oxo-3,4-dihydropyrido[3,4-d]pyrimidin-8-yl)methyl)amino)-N-(pyrrolidin-3-yl)acetamide] |  | 
4 | < 20 | O=C(CC1CCNCC1)NCc1nccc2c(=O)[nH]c(COc3ccc(F)c(Cl)c3)nc12 [Example 240, N-((2-((3-chloro-4-fluorophenoxy)methyl)-4-oxo-3,4-dihydropyrido[3,4-d]pyrimidin-8-yl)methyl)-2-(piperidin-4-yl)acetamide] |  | 
5 | < 20 | O=C(NCc1nccc2c(=O)[nH]c(COc3ccc(F)c(Cl)c3)nc12)C1CCCNC1 (centres unmarked) [Example 241, N-((2-((3-chloro-4-fluorophenoxy)methyl)-4-oxo-3,4-dihydropyrido[3,4-d]pyrimidin-8-yl)methyl)piperidine-3-carboxamide] |  | 

The next lines start with the compound.

Row | Compound | inhibition at 0.1 µM [2] [%] | MDA-MB-231 cell migration (wound healing) [1] | MDA-MB-231 breast cancer cell invasion potential [3]
6 | CCN(CC)CCCC(C)NCc1nccc2c(=O)[nH]cnc12 (centres unmarked) [Example 87, 8-(((5-(diethylamino)pentan-2-yl)amino)methyl)pyrido[3,4-d]pyrimidin-4(3H)-one] | < 20 | inactive | 
7 | CN1CCC(CNCc2nccc3c(=O)[nH]c(COc4ccc(Cc5ccccc5)cc4)nc23)C1 (centres unmarked) [Example 144, 2-((4-benzylphenoxy)methyl)-8-((((1-methylpyrrolidin-3-yl)methyl)amino)methyl)pyrido[3,4-d]pyrimidin-4(3H)-one] | > 50 | suppressed MDA-MB-231 cell migration | 
8 | O=c1[nH]c(COc2ccc(F)c(Cl)c2)nc2c(CNCC3CNCCO3)nccc12 (centres unmarked) [Example 167, 2-((3-chloro-4-fluorophenoxy)methyl)-8-(((morpholin-2-ylmethyl)amino)methyl)pyrido[3,4-d]pyrimidin-4(3H)-one] | > 50 |  | decreased the MDA-MB-231 breast cancer cell invasion potential
9 | O=C(CNCc1nccc2c(=O)[nH]c(COc3ccc(F)c(Cl)c3)nc12)N1CCC(N2CCOCC2)C1 (centres unmarked) [Example 235, 2-((3-chloro-4-fluorophenoxy)methyl)-8-(((2-(3-morpholinopyrrolidin-1-yl)-2-oxoethyl)amino)methyl)pyrido[3,4-d]pyrimidin-4(3H)-one] | 20 to 50 |  | 
10 | CCN(CC)C1CCN(C(=O)CNCc2nccc3c(=O)[nH]c(COc4ccc(F)c(Cl)c4)nc23)C1 (centres unmarked) [Example 236, 2-((3-chloro-4-fluorophenoxy)methyl)-8-(((2-(3-(diethylamino)pyrrolidin-1-yl)-2-oxoethyl)amino)methyl)pyrido[3,4-d]pyrimidin-4(3H)-one] | > 50 |  | 
11 | O=C(CCCCCCC(=O)Nc1ccccc1)NO [SAHA, reference compound] |  |  | decreased the MDA-MB-231 breast cancer cell invasion potential
